Source: PMC5531494, “Target specificity, in vivo pharmacokinetics, and efficacy of the putative STAT3 inhibitor LY5 in osteosarcoma, Ewing's sarcoma, and rhabdomyosarcoma” (PLoS ONE, 2017)
Where two headings read alike, the source gives them in different places. Marks after values point to notes of the source that are not given here.

Assays:
[1] = PK in normal beagle dogs, oral capsules of LY5 powder; assay type: in vivo; details: plasma, fasted; for AUC(0-inf): read-out: AUC inf-obs
Protocol: LY5 was evaluated in two normal purpose-bred beagle dogs (female 8.8 kg; male 11.2 kg) receiving a single dose of 1mg/kg LY5 IV then orally by gavage 7 days later to establish the PK profile and assess the spectrum of clinical toxicities associated with LY5 administration. The oral dosing was repeated in the fed and fasted state. The starting dose was determined based on allometric scaling from the maximal tolerated dose studies performed in mice. Dogs were washed out for 30 days, and then given a dose of 25 mg in a capsule orally, followed by a 50 mg capsule dose 14 days later. Full PK sampling was performed over 24 hours following each dose of LY5. The dogs received LY5 and were used for the PK analysis but were not euthanized upon conclusion of the study.
The liquid chromatography-mass spectrometry system utilized for these analyses consisted of a Dionex Ultimate 3000 RSLCnano High Performance Liquid Chromatography system and a Thermo Finnigan Quantum Ultras EMR mass spectrometer with an electrospray ionization source. Positive ionization mode was used for both LY5 and the internal standard, hesperetin. Plasma samples were collected and analyzed by the OSU James Comprehensive Cancer Center Pharmacoanalytical Shared Resource. Pharsight Phoenix WinNonlin software using non-compartmental analysis was used to generate PK parameters including maximum plasma concentration (Cmax), amount of time that drug is present at Cmax (Tmax), and total area under the curve (AUC). AUC all and AUC last were calculated by linear trapezoidal method of concentration-time curve up to the last measured point. AUC inf-obs was calculated by log-linear extrapolation of the terminal phase beyond the last collection time. Bioavailability (F) was calculated for IP and PO administration routes. Plasma stability and liver microsomal stability of LY5 were also assessed through this shared resource.

[2] = tested on: RH10, RH36, OS-17 and OS-1; experiment: Subcutaneous PDX models of RMS and OS, overall; assay type: in vivo, mice; details: subcutaneous PDX models RH10, RH36, OS-17, OS-1
Protocol: (§1) C.B-17SC scid^-/- female mice (Taconic Farms, Germantown NY), were used to propagate subcutaneously implanted tumors. All mice were maintained under barrier conditions and experiments were conducted using protocols and conditions approved by the institutional animal care and use committee at University of Texas Health Science Center at San Antonio. Ten mice were used in each control or treatment group. Tumor volumes (cm^3) were determined and responses were determined using three activity measures as previously described.
To further examine the efficacy of LY5, we administered LY5 using subcutaneous PDX models of RMS (RH10 and RH36) and OS (OS-17 and OS-1). RH10, RH36 and OS-1 were derived from tissue explants, therefore no corresponding cell lines exist. Tumors were harvested 2 hrs after final drug administration. […] In addition, STAT3 phosphorylation was not observed in control or treated tumor derived from OS-17, and inhibition of STAT3 phosphorylation was not observed in OS-1 PDX models treated with 40 mg/kg twice daily.

[3] = tested on: OS-17-luc cells; experiment: Murine model of OS pulmonary metastasis, bioluminescent imaging; assay type: in vivo, mice; details: 20 mg/kg LY5 daily oral gavage for 30 days, vs vehicle
Protocol: The ability of LY5 to inhibit pulmonary metastases was evaluated using a murine model of OS pulmonary metastasis. 8-week-old C.B-17 scid -/- female mice (Envigo, Madison, WI) received IV inoculation with 10^6 OS-17-luc cells expressing a luciferase reporter gene. OS-17-luc cells were generated by infecting OS-17 wild type cells with lentivirus containing the firefly luciferase under a CMV promoter (Cellomics Technology, Hallethorpe, MD) and selected with 0.5 ug/mL puromycin (Thermo Fisher Scientific, Waltham, MA). Beginning 24 hrs after inoculation, mice received vehicle (n = 10) or 20 mg/kg LY5 once daily via oral gavage (n = 9, one mouse died within 24 hrs after cell inoculation). LY5 was prepared by diluting a 40 mg/mL solution/slurry with a 50% propylene glycol/1% Tween 20 in water vehicle immediately before administration. Mice were treated with LY5 for 30 days, and bioluminescent imaging (after IP luciferin administration) was performed to determine pulmonary metastatic disease load. To investigate the pharmacodynamics (PD) effects of LY5, pSTAT3 (p-Tyr705, ab76315, Abcam) and total STAT3 (ab119352, Abcam) were evaluated in pulmonary metastatic lesions using IHC in lung samples from mice euthanized 24 hrs after their last dose.
(A-B) IHC staining of lung metastasis from mice treated with LY5. The metastatic tumor sections were stained with pSTAT3 or hematoxylin and eosin. […]

[4] = tested on: Rh10; experiment: Subcutaneous xenograft study; assay type: in vivo, mice; details: Rh10, 10 mg/kg daily for five days for four consecutive weeks
Protocol: as §1
(§2) The data were analyzed by using GraphPad Prism software (GraphPad Software, Inc., San Diego, CA). Data are presented as mean ± standard deviation. Data were analyzed by one-way analysis of variance (ANOVA), and Tukey’s post-test was used to assess differences between groups. Differences were considered statistically significant at p < 0.05. For in vivo xenograft models, an event was defined as four times the tumor volume at baseline similar to the PPTP criteria. The probabilities of time-to-event among groups were compared using log-rank test. The anti-tumor efficacy of LY5 was analyzed by using the statistical pipeline developed in PPTP [27].

[5] = tested on: OS-17; experiment: Subcutaneous xenograft study; assay type: in vivo, mice; details: OS-17, 10 mg/kg daily for 28 days
Protocol: as §1, §2

[6] = tested on: Rh36; experiment: Subcutaneous xenograft study; assay type: in vivo, mice; details: Rh36, 10 mg/kg daily for 28 days
Protocol: as §1, §2

[7] = female, Dog #2, 25 mg oral capsule
[8] = female, Dog #2, 50mg oral capsule
[9] = male, Dog #1, 25 mg oral capsule
[10] = male, Dog #1, 50mg oral capsule

## NS(=O)(=O)c1cccc2c1C(=O)C=C(Nc1cccnc1)C2=O [LY5, 5,8-dioxo-6-(pyridin-3-ylamino)-5,8-dihydronaphthalene-1-sulfonamide]
[1]; [7]
  AUC(0-t): 2.51 µM·h
  Tmax: 2 h
  AUC(0-inf): 2.53 µM·h
[1]; [8]
  AUC(0-t): 5.93 µM·h
  Tmax: 4 h
  AUC(0-inf): 5.96 µM·h
[1]; [9]
  AUC(0-t): 2.62 µM·h
  Cmax: 230 nM
  Tmax: 2 h
  AUC(0-inf): 2.69 µM·h
[1]; [10]
  AUC(0-t): 2.92 µM·h
  Cmax: 840 nM
  Tmax: 3 h
  AUC(0-inf): 2.97 µM·h
[1]; Dog #2, 25 mg oral capsule
  Cmax: 516 nM
[1]; Dog #2, 50mg oral capsule
  Cmax: 909 nM
[2]
  PDX growth compared to control: did not decrease PDX growth
[3]
  development of pulmonary metastatic lesions (luciferase expression): no difference
[4]
  Event-free survival (Treatment/Control): 1.11
  Group Response: PD1^e (Progressive disease 1, <50% tumor growth inhibition (TGI))
  Median day to event: 18.7 days
  Survival (%): 100%
[5]
  Event-free survival (Treatment/Control): 1.15
  Group Response: PD1 (Progressive disease 1, <50% tumor growth inhibition (TGI))
  Median day to event: 19.7 days
  Survival (%): 90%
[6]
  Event-free survival (Treatment/Control): 0.94
  Group Response: PD1 (Progressive disease 1, <50% tumor growth inhibition (TGI))
  Median day to event: 16.5 days
  Survival (%): 100%
